According to patent US10457891B2, “Organic compounds” (Givaudan, S.A., priority 2013, dated 2019):
Where two headings read alike, the source gives them in different places.

Legend:
[1] = system: hepatocytes from male rats (Sprague Dawley); test: In vitro metabolism study in rat hepatocytes in suspension, GC-MS; conditions: for Residual concentration: male, Sprague Dawley, rat, 4 h, 100 μM
Protocol: In order to study in vitro metabolism in rat hepatocytes, Lilial™ and compounds of the present invention may be incubated in the presence of rat hepatocytes in suspension. Reduction in the concentration of Lilial™ and the compounds of the present invention and formation of any of the corresponding benzoic acid derivatives may be analysed by GC-MS.
Cryopreserved hepatocytes from male rats (Sprague Dawley; Lifetechnologies) were defrozen, washed in Cyropreserved Hepatocytes Recovery Medium (CHRM; Lifetechnologies) and suspended in Williams E Medium (WEM; Lifetechnologies). Lilial™, or the compounds of the present invention (final concentration: 100 μM) were added to the cells (1×10^6 viable cells/ml) and suspensions were incubated up to 4 hours at 37° C. on a shaker in duplicate. Metabolism of testosterone was monitored as positive control. Decrease of the test compounds and formation of the corresponding benzoic acid derivative was determined by GC-MS analysis of methyl esters formed after derivatisation with trimethylsilyl diazomethane (Sigma-Aldrich) in methanol. The test compounds react with diazomethane yielding a methyl ketone which was used for the quantification of Lilial™ and the compound of formula (I). Metabolism was stopped with ice cold 1 M HCl, samples were extracted with tert-butyl methyl ether (MTBE) and analysed by GC-MS. Incubations containing testosterone as control were also stopped with ice cold 1 M HCl, centrifuged to separate the cells, filtrated and the decrease of testosterone analysed by LC-MS.

[2] = system: primates; conditions: cited from earlier work
[3] = system: reproductive organs of male rats; conditions: rat, in vivo; cited from earlier work
[4] = system: reproductive organs of dogs; conditions: dog, in vivo; cited from earlier work
[5] = system: mice; conditions: mouse, in vivo; cited from earlier work
[6] = system: guinea-pigs; conditions: guinea pig, in vivo; cited from earlier work

Compound	Residual concentration [1] [µM]	other results
Cc1cc(CC(C)C)ccc1CCC=O	0	
Cc1cc(CCC(C)C)ccc1CCC=O	0	
Cc1cc(CCCC(C)C)ccc1CCC=O	0	
Cc1cc(CC(C)C)cc(C)c1CCC=O	0	
Cc1ccc(CC(C)C)cc1CC(C)C=O (centres unmarked)	0	
Cc1ccc(CCCC(C)C)cc1CCC=O	2.4	
CC(C=O)Cc1ccc(C(C)(C)C)cc1 (centres unmarked) [Lilial™, 3-(4-tert-butylphenyl)-2-methylpropanal]	0	Decrease / metabolism of compound in rat hepatocytes [1]: metabolised rapidly; Toxic effects [2]: No effects; Toxic effects on reproductive organs [3]: toxic effects on the reproductive organs; Toxic effects on reproductive organs [4]: toxic effects on the reproductive organs; Toxic effects [5]: No effects; Toxic effects [6]: No effects
C[C@]12CC[C@H]3[C@@H](CCC4=CC(=O)CC[C@@]43C)[C@@H]1CC[C@@H]2O [testosterone]		Decrease / metabolism of compound in rat hepatocytes ([1]; rat hepatocytes, up to 4 hours at 37° C.): rapid decrease
